In patent US8822535B2 (priority 2005, dated 2014):
Several values for one entry are separate records, joined by “and”; a condition that tells them apart may be missing. Equal values may be shown once. Read-outs that look alike come from different tables or passages of the source.

Tests used:
[1] = system: mice; assay type: in vivo, mouse (C57BL6/J)
Experimental: The same flow rates were used as described above (i.e., […] in a 0.5 L chamber).
Experiments were conducted to test the ability of a mouse in a ‘hibernation-like’ state to survive in conditions where it would normally die. The adverse condition was hypoxia, which the literature states that mice (C57BL6/J males) can live in for a maximum of 20 minutes at 5% Oxygen.
The hypoxic exposure was timed (indicated below) and viability of the mice was determined.

[2] = system: mice; test: Cyanide exposure experiment in mice; assay type: in vivo, mouse; details: 80 ppm in room air at room temperature
Experimental: To measure metabolic effects of HCN, mice were exposed to increasing concentrations of HCN starting at 1 ppm. Oxygen (O2) consumption, carbon dioxide (CO2) production, body core temperature (BCT) and behavior were measured or evaluated. […]. A metabolic effect is defined as a 10% change in less than 10 minutes in any of the assay values described above.

[3] = system: rats; assay type: in vivo, rat
Experimental: After surgical implantation of catheters and recovery, blood was removed from conscious animals in 40 minutes. […] Three hours after the end of the bleed, surviving animals were given one shed-blood volume of lactated ringers solution intravenously.

[4] = system: zebrafish (D. rerio) embryos; test: Zebrafish embryo heart rate screening assay; assay type: in vivo
Source text: These embryos are transparent, allowing one to view, using a dissecting microscope with a 4-20 times power lense, the heart beat and resultant blood flow into the main vessel along the back and into the tail. Heart rate in these animals is an indicator of the metabolic activity of the organism, such that a reduction in the heart rate signifies a reduction in metabolism. Embryos were dissected from their egg casings and distributed five per well in flat bottomed polystyrene tissue culture plates and incubated in 1 mL of standard fish water. The fishwater is composed of 1 teaspoon Instant Ocean (artificial sea water mixture, Aquarium Systems, Inc.) per 5 gallons. Calcium chloride is adjusted to 150 ppm and sodium bicarbonate to ˜100 ppm.

SMILES: S [H2S, hydrogen sulfide]
- Time in Hypoxia ([1]; ambient 20° C., 5 hrs in 80 ppm H2S prior, 4% oxygen, result life): 28 min
- Time in Hypoxia ([1]; ambient 20° C., 5 hrs in 80 ppm H2S prior, 5.00% oxygen, result life): 60 min
- Time in Hypoxia ([1]; ambient 20° C., 5 hrs in 80 ppm H2S prior, 5.20% oxygen, result life): 11 min
- Time in Hypoxia ([1]; ambient 20° C., 5.5 hrs in 80 ppm H2S prior, 5.00% oxygen, result life): 25 min
- Time in Hypoxia ([1]; ambient 24° C., 80 ppm H2S simultaneous with hypoxia, 5.10% oxygen, result dead): 10 min
- Time in Hypoxia ([1]; ambient 24° C., 8 minutes in 80 ppm H2S prior, 4.00% oxygen, result dead): 8 min
- Time in Hypoxia ([1]; ambient 24° C., 8 minutes in 80 ppm H2S prior, 4.50% oxygen, result dead): 23 min
- Time in Hypoxia ([1]; ambient 24° C., 8 minutes in 80 ppm H2S prior, 5% oxygen, result dead): 20 min
- Time in Hypoxia ([1]; ambient 24° C., 8 minutes in 80 ppm H2S prior, 5.00% oxygen, result life): 50 min
- Time in Hypoxia ([1]; ambient 24° C., 10 minutes in 90 ppm H2S prior, 5% oxygen, result dead): 56 min
- Time in Hypoxia ([1]; ambient 30° C., 8 minutes in 80 ppm H2S prior, 4.50% oxygen, result dead): 6 min
- time survived in hypoxia ([1]; pre-equilibrated to 80 ppm H2S for 3 hours, 5.2% oxygen, still doing well 3 weeks later): 11 min
- core temperature [2]: approximately 28 °C
- rats surviving hemorrhage and 3 hour shock period ([3]; 300 ppm H2S): 6/7
- Complete recovery ([3]; 300 ppm H2S from 30% blood loss to end of 40 minute bleed): 85.7% (6/7)
- CO2 production (VCO2) ([3]; 15 minutes post bleed): 17 ± 3 mL/min/kg
- Blood CO2 content (pCO2) ([3]; End of bleed): 35 +/− 6 mmHg
- Blood Lactate ([3]; End of bleed): 6.6 ± 1 mmol/L
- Blood base excess ([3]; End of bleed): -5 ± 4 mmol/L
- Blood bicarbonate content ([HCO3]) ([3]; End of bleed): 21 ± 3 mmol/L
- Blood pH ([3]; End of bleed): 7.41 +/− 0.02
- CO2 production (VCO2) ([3]; End of bleed): 16 ± 2 mL/min/kg
- CO2 production (VCO2) ([3]; Mid-bleed): 20 ± 2 mL/min/kg
- Blood CO2 content (pCO2) ([3]; Pre-bleed): 45 +/− 6 mmHg
- Blood Lactate ([3]; Pre-bleed): 1.4 ± 0.5 mmol/L
- Blood base excess ([3]; Pre-bleed): 8 ± 2 mmol/L
- Blood bicarbonate content ([HCO3]) ([3]; Pre-bleed): 32 ± 3 mmol/L
- Blood pH ([3]; Pre-bleed): 7.46 +/− 0.03
- CO2 production (VCO2) ([3]; Pre-bleed): 25 ± 4 mL/min/kg
- Time to death of non-survivors ([3]; after the end of the bleed, 300 ppm H2S): 174 min and 174 (1/7) min
- heart rate after recovery ([4]; 24 hours after initial exposure, solution replaced with normal fishwater after five hours): 160-200 beats per minute
- heart beats ([4]; 48 hour old embryos, hydrogen sulfide-containing fishwater (approximately 0.1 molar), 2-3 hours following exposure): 60-80 beats per minute
